In the NIST ThermoML archive (doi:10.1016/j.fluid.2015.10.047):

Key:
[1] = Molar enthalpy of transition or fusion; conditions: Crystal; DSC
[2] = Crystal; DTA
[3] = molar heat capacity at constant pressure; conditions: 101.33 kPa, Large sample (1 g) DSC

CO[C@H]1O[C@H](CO)[C@@H](O)[C@H](O)[C@H]1O [methyl-α-D-glucopyranoside]
Conditions	Molar enthalpy of transition or fusion [kcal/mol]	Normal melting temperature [°C]
[1]	6.7	–
[2]	–	169.18

[3]
Conditions	molar heat capacity at constant pressure [J/K/mol]
298.15 K, Crystal	291.48
303.15 K, Crystal	294.68
308.15 K, Crystal	297.16
313.15 K, Crystal	300.15
318.15 K, Crystal	302.5
323.15 K, Crystal	305.37
328.15 K, Crystal	308.34
333.15 K, Crystal	311.81
338.15 K, Crystal	315.04
343.13 K, Crystal	317.77
348.15 K, Crystal	320.54
353.15 K, Crystal	323.46
358.15 K, Crystal	327.84
363.15 K, Crystal	331.47
368.15 K, Crystal	334
373.15 K, Crystal	336.83
378.15 K, Crystal	339.69
383.15 K, Crystal	342.52
388.15 K, Crystal	345.56
393.15 K, Crystal	348.77
398.15 K, Crystal	352.33
403.15 K, Crystal	356.35
408.15 K, Crystal	360.93
413.15 K, Crystal	366.26
418.15 K, Crystal	369.54
423.15 K, Crystal	372.62
428.15 K, Crystal	376.07
433.15 K, Crystal	379.37
453.15 K, Liquid	510.58
458.15 K, Liquid	511.8
463.15 K, Liquid	513
468.15 K, Liquid	514.17
473.15 K, Liquid	515.44
478.15 K, Liquid	516.62
483.15 K, Liquid	517.93
488.15 K, Liquid	519.22
493.15 K, Liquid	520.14
498.15 K, Liquid	521.17
503.15 K, Liquid	522.4
508.15 K, Liquid	523.64
513.15 K, Liquid	524.87
